Bounds are passed on as bounds.

The target in the experiment is T1, human full-length HSP90 (Homo sapiens, UniProt P08238).
T1 construct: E. coli expressed human full-length HSP90 protein, purified >95%; made in house; host or cells: E. coli
T1 sequence (P08238 whole entry): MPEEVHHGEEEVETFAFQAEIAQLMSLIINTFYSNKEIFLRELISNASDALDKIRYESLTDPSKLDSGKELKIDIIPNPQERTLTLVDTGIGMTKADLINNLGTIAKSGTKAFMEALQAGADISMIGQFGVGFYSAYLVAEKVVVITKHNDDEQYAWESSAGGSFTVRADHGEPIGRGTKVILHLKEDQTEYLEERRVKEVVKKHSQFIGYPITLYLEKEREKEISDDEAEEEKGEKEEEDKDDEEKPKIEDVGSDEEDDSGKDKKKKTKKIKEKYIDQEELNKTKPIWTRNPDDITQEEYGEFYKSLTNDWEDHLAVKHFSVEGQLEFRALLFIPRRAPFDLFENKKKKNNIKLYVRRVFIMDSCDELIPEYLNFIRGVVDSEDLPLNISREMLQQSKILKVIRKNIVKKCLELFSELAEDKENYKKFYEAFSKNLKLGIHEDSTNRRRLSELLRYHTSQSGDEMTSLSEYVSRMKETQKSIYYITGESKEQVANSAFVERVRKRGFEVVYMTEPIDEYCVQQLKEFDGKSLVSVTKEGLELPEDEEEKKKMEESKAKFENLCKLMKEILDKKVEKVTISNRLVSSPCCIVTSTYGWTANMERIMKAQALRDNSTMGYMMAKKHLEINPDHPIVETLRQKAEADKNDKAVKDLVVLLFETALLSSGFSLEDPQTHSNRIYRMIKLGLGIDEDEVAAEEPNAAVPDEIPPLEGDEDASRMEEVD
The experiment can be described thus: Fluorescence polarization (FP) binding assay. The following applies: competitive displacement of fluorescein-labelled probe from human full-length HSP90; activity range; read-out: activity in the fluorescence polarization assay. From the text: Fluorescence Polarization Assay
Fluorescence polarization {also known as fluorescence anisotropy} measures the rotation of a fluorescing species in solution, where the larger molecule the more polarized the fluorescence emission. When the fluorophore is excited with polarized light, the emitted light is also polarized. The molecular size is proportional to the polarization of the fluorescence emission.
The fluoroscein-labelled probe—
binds to HSP90 {full-length human, full-length yeast or N-terminal domain HSP90} and the anisotropy {rotation of the probe:protein complex} is measured.
Test compound is added to the assay plate, left to equilibrate and the anisotropy measured again. Any change in anisotropy is due to competitive binding of compound to HSP90, thereby releasing probe.
Stored at room temperature. • 3) BSA (bovine serum albumen) 10 mg/ml (New England Biolabs # B9001S) • 4) 20 mM probe in 100% DMSO stock concentration. Stored in the dark at RT. Working concentration is 200 nM diluted in AR water and stored at 4° C.
• 1) Add 100 μl×buffer to wells 1A and 12A(=FP BLNK) • 2) Prepare assay mix—all reagents are kept on ice with a lid on the bucket as the probe is light-sensitive.
• 3) Aliquot 100 μl assay mix to all other wells • 4) Seal plate and leave in dark at room temp for 20 minutes to equilibrate
This gives 2.5 mM {50×} stock cpd−assuming cpds 20 mM. • 4) Repeat for wells A2 to A10. Control in columns 11 and 12. • 5) Transfer 5 μl from row A to row B—not column 12. Mix well. • 6) Transfer 5 μl from row B to row C. […] Add 2 μl of 100 mM standard cpd to wells B12-H12 {is positive control} • 13) The Z′ factor is calculated from zero controls and positive wells.
As to `CSc1nc(-c2ccc(C)cc2C)c2c(C#N)c[nH]c2n1` [Example 1, 4-(2,4-dimethyl-phenyl)-2-methylsulfanyl-7H-pyrrolo[2,3-d]pyrimidine-5-carbonitrile], the IC50 is less than 500 nM.
With `CSc1nc(-c2ccccc2)c2c(C#N)c[nH]c2n1` [Example 2, 2-methylsulfanyl-4-phenyl-7H-pyrrolo[2,3-d]pyrimidine-5-carbonitrile] the figure was less than 500 nM.
For the molecule `CSc1nc(-c2ccc(C#N)cc2)c2c(C#N)c[nH]c2n1` [Example 3, 4-(4-cyano-phenyl)-2-methylsulfanyl-7H-pyrrolo[2,3-d]pyrimidine-5-carbonitrile], the IC50 was less than 500 nM.
As for `CSc1nc(-c2ccc(F)cc2C)c2c(C#N)c[nH]c2n1` [Example 4, 4-(2-methyl-4-fluoro-phenyl)-2-methylsulfanyl-7H-pyrrolo[2,3-d]pyrimidine-5-carbonitrile], the IC50 is less than 500 nM.
For `CSc1nc(-c2ccc(C)cc2C)c2c(Br)c[nH]c2n1` [Example 5, 5-Bromo-4-(2,4-dimethyl-phenyl)-2-methylsulfanyl-7H-pyrrolo[2,3-d]pyrimidine] the value was 500 to 10000 nM.
For `CSc1nc(-c2ccc(C)cc2C)c2c(C)c[nH]c2n1` [Example 6, 4-(2,4-dimethyl-phenyl)-5-methyl-2-methylsulfanyl-7H-pyrrolo[2,3-d]pyrimidine] the value was 500 to 10000 nM; for `CCN(CC)CCOc1cccc(-c2nc(SC)nc3[nH]cc(C#N)c23)c1` [Example 7], 500 to 10000 nM; for `Cc1ccc(-c2nc(Cl)nc3[nH]cc(C#N)c23)c(C)c1` [Example 8, 2-Chloro-4-(2,4-dimethyl-phenyl)-7H-pyrrolo[2,3-d]pyrimidine-5-carbonitrile], less than 500 nM.
As to `Cc1ccc(-c2ncnc3[nH]cc(C#N)c23)c(C)c1` [Example 9, 4-(2,4-dimethyl-phenyl)-7H-pyrrolo[2,3-d]pyrimidine-5-carbonitrile], the IC50 lay in the range of 500 to 10000 nM.
With `CSc1nc(-c2ccc(C)cc2C)c2c(C(F)(F)F)c[nH]c2n1` [Example 10, 4-(2,4-Dimethyl-phenyl)-2-methylsulfanyl-5-trifluoromethyl-7H-pyrrolo[2,3-d]pyrimidine] the figure was 500 to 10000 nM; with `CSc1nc(-c2ccc(C)cc2C)c2c(C3CC3)c[nH]c2n1` [Example 11, 5-Cyclopropyl-4-(2,4-dimethyl-phenyl)-2-methylsulfanyl-7H-pyrrolo[2,3-d]pyrimidine], more than 10000 nM; with `COc1nc(-c2ccc(F)cc2C)c2c(C#N)c[nH]c2n1` [Example 12, 4-(4-Fluoro-2-methyl-phenyl)-2-methoxy-7H-pyrrolo[2,3-d]pyrimidine-5-carbonitrile], 500 to 10000 nM.
For `Cc1cc(F)ccc1-c1nc(OCCN2CCCC2)nc2[nH]cc(C#N)c12` [Example 13, 4-(4-Fluoro-2-methyl-phenyl)-2-(2-pyrrolidin-1-yl-ethoxy)-7H-pyrrolo[2,3-d]pyrimidine-5-carbonitrile] the value was more than 10000 nM; for `Cc1cc(F)ccc1-c1nc(OCCN2CCOCC2)nc2[nH]cc(C#N)c12` [Example 14, 4-(4-Fluoro-2-methyl-phenyl)-2-(2-morpholin-4-yl-ethoxy)-7H-pyrrolo[2,3-d]pyrimidine-5-carbonitrile], 500 to 10000 nM.
Consider `Cc1cc(F)ccc1-c1nc(OCCN2CCCC2=O)nc2[nH]cc(C#N)c12` [Example 15, 4-(4-Fluoro-2-methyl-phenyl)-2-[2-(2-oxo-pyrrolidin-1-yl)-ethoxy]-7H-pyrrolo[2,3-d]pyrimidine-5-carbonitrile], for which the IC50 fell in the range of 500 to 10000 nM.
For the molecule `Cc1cc(F)ccc1-c1nc(N2CCN(C)CC2)nc2[nH]cc(C#N)c12` [Example 16, 4-(4-Fluoro-2-methyl-phenyl)-2-(4-methyl-piperazin-1-yl)-7H-pyrrolo[2,3-d]pyrimidine-5-carbonitrile], the IC50 was more than 10000 nM.
With `CNc1nc(-c2ccc(F)cc2C)c2c(C#N)c[nH]c2n1` [Example 17, 4-(4-Fluoro-2-methyl-phenyl)-2-methylamino-7H-pyrrolo[2,3-d]pyrimidine-5-carbonitrile] the figure was 500 to 10000 nM; with `CCc1nc(-c2ccc(F)cc2C)c2c(C#N)c[nH]c2n1` [Example 18, 2-Ethyl-4-(4-fluoro-2-methyl-phenyl)-7H-pyrrolo[2,3-d]pyrimidine-5-carbonitrile], 500 to 10000 nM.
On to `Cc1cc(F)ccc1-c1nc(SCCO)nc2[nH]cc(C#N)c12` [Example 20, 4-(4-Fluoro-2-methyl-phenyl)-2-(2-hydroxy-ethylsulfanyl)-7H-pyrrolo[2,3-d]pyrimidine-5-carbonitrile], for which the IC50 was less than 500 nM.
For `Cc1cc(F)ccc1-c1nc(SCCN2CCOCC2)nc2[nH]cc(C#N)c12` [Example 21, 4-(4-Fluoro-2-methyl-phenyl)-2-(2-morpholin-4-yl-ethylsulfanyl)-7H-pyrrolo[2,3-d]pyrimidine-5-carbonitrile] the value was less than 500 nM.
For `COc1cc(-c2nc(SC)nc3[nH]cc(C#N)c23)c(Cl)cc1Cl` [Example 22, 4-(2,4-Dichloro-5-methoxy-phenyl)-2-methylsulfanyl-7H-pyrrolo[2,3-d]pyrimidine-5-carbonitrile] the value was less than 500 nM.
For `CCN(CC)CCSc1nc(-c2cc(OC)c(Cl)cc2Cl)c2c(C#N)c[nH]c2n1` [Example 23, 4-(2,4-Dichloro-5-methoxy-phenyl)-2-(2-diethylamino-ethylsulfanyl)-7H-pyrrolo[2,3-d]pyrimidine-5-carbonitrile] the value was less than 500 nM; for `COc1cc(-c2nc(OCCN3CCCC3=O)nc3[nH]cc(C#N)c23)c(Cl)cc1Cl` [Example 25, 4-(2,4-Dichloro-5-methoxy-phenyl)-2-[2-(2-oxo-pyrrolidin-1-yl)-ethoxy]-7H-pyrrolo[2,3-d]pyrimidine-5-carbonitrile], less than 500 nM; for `CSc1nc(-c2cc(OCCN3CCCC3)c(Cl)cc2Cl)c2c(C#N)c[nH]c2n1` [Example 26, 4-[2,4-Dichloro-5-(2-pyrrolidin-1-yl-ethoxy)-phenyl]-2-methylsulfanyl-7H-pyrrolo[2,3-d]pyrimidine-5-carbonitrile], less than 500 nM.
As for `CCN(CC)CCOc1cc(-c2nc(SC)nc3[nH]cc(C#N)c23)c(Cl)cc1Cl` [Example 27, 4-[2,4-Dichloro-5-(2-diethylamino-ethoxy)-phenyl]-2-methylsulfanyl-7H-pyrrolo[2,3-d]pyrimidine-5-carbonitrile], the IC50 was less than 500 nM.
Take `COc1cc(Cl)c(-c2nc(SC)nc3[nH]cc(C#N)c23)cc1OC` [Example 29, 4-(2-Chloro-4,5-dimethoxy-phenyl)-2-methylsulfanyl-7H-pyrrolo[2,3-d]pyrimidine-5-carbonitrile]: the IC50 was less than 500 nM.
For `CCN(CC)CCSc1nc(-c2cc(OC)c(OC)cc2Cl)c2c(C#N)c[nH]c2n1` [Example 30, 4-(2-Chloro-4,5-dimethoxy-phenyl)-2-(2-diethylamino-ethylsulfanyl)-7H-pyrrolo[2,3-d]pyrimidine-5-carbonitrile], the IC50 is less than 500 nM.
With `COc1ccc(-c2nc(OCCN3CCC(F)(F)CC3)nc3[nH]cc(C#N)c23)cc1OC` [Example 32, 4-(4,5-Dimethoxy-phenyl)-2-[2-(4,4-difluoro-piperidin-1-yl)-ethoxy]-7H-pyrrolo[2,3-d]pyrimidine-5-carbonitrile], the IC50 is less than 500 nM.
`COc1ccc(-c2nc(OCCN3CCC(F)(F)C3)nc3[nH]cc(C#N)c23)cc1OC` [Example 33, 2-[2-(3,3-Difluoro-pyrrolidin-1-yl)-ethoxy]-4-(3,4-dimethoxy-phenyl)-7H-pyrrolo[2,3-d]pyrimidine-5-carbonitrile]: the IC50 lay within 500 to 10000 nM.
With `COc1ccc(-c2nc(OCCN3CC[C@H](F)C3)nc3[nH]cc(C#N)c23)cc1OC` [Example 34, 4-(3,4-Dimethoxy-phenyl)-2-[2-(3(S)-fluoro-pyrrolidin-1-yl)-ethoxy]-7H-pyrrolo[2,3-d]pyrimidine-5-carbonitrile] the figure was 500 to 10000 nM; with `COc1cc(Cl)c(-c2nc(OCCN3CC[C@H](F)C3)nc3[nH]cc(C#N)c23)cc1OC` [Example 35], less than 500 nM.
As for `COc1cc(Cl)c(-c2nc(OCCN3CCC(F)(F)C3)nc3[nH]cc(C#N)c23)cc1OC` [Example 36], the IC50 is less than 500 nM.
With `CCN(CC)CCSc1nc(-c2cc(OC)c(C#N)cc2Cl)c2c(C#N)c[nH]c2n1` [Example 37, 4-(2-Chloro-4-cyano-5-methoxy-phenyl)-2-(2-diethylamino-ethylsulfanyl)-7H-pyrrolo[2,3-d]pyrimidine-5-carbonitrile] the figure was less than 500 nM.
With `CNC(=O)CSc1nc(-c2ccc(F)cc2C)c2c(C#N)c[nH]c2n1` [Example 38, 2-[5-Cyano-4-(4-fluoro-2-methyl-phenyl)-7H-pyrrolo[2,3-d]pyrimidin-2-ylsulfanyl]-N-methyl-acetamide] the figure was less than 500 nM.
Regarding `Cc1ccc(-c2ncnc3[nH]cc(C(N)=O)c23)c(C)c1` [Example 39, 4-(2,4-Dimethyl-phenyl)-7H-pyrrolo[2,3-d]pyrimidine-5-carboxylic Acid Amide], the IC50 was more than 10000 nM.
